Reference: ChEMBL document CHEMBL1121515 (J Med Chem, 1980)
Calls of active or inactive are those of the source. The rule behind the calls is not given here.

Key:
[1] = species: Mus musculus; assay: Relative CNS activity of compound was measured in mice; (-) </= […]; type: functional, Central nervous system
[2] = species: Rattus norvegicus; assay: Conditioned avoidance response (CAR) was measured in rats; Inactive; type: functional, organism-based
[3] = Lethal dose was measured in mice 0.5 hr post intraperitoneal administration; type: toxicity, organism-based; settings: mouse, in vivo, ip
[4] = test system: Rattus norvegicus; assay: Conditioned avoidance response (CAR) was measured in rats at 20 mg/kg; A = active; type: functional, organism-based; parameters: dose 20 mg/kg
[5] = test system: Rattus norvegicus; assay: Conditioned avoidance response (CAR) was measured in rats at 10 mg/kg; I = inactive; type: functional, organism-based; parameters: dose 10 mg/kg
[6] = test system: Rattus norvegicus; assay: Conditioned avoidance response (CAR) was measured in rats at 40 mg/kg; A = active; type: functional, organism-based; parameters: dose 40 mg/kg
[7] = species: Mus musculus; assay: Relative CNS activity of compound was measured in mice (for activity in 2-3 assays); type: functional, organism-based; settings: Central nervous system
[8] = test system: Rattus norvegicus; assay: Conditioned avoidance response (CAR) was measured in rats at 10 mg/kg;I = inactive; type: functional, organism-based; parameters: dose 10 mg/kg
[9] = test system: Rattus norvegicus; assay: Conditioned avoidance response (CAR) was measured in rats at 40 mg/kg;A = active; type: functional, organism-based; parameters: dose 40 mg/kg
[10] = species: Mus musculus; assay: Relative CNS activity of compound was measured in mice (+++ =for activity in > 6 assays); type: functional, organism-based; settings: Central nervous system
[11] = test system: Rattus norvegicus; assay: Conditioned avoidance response (CAR) was measured in rats at 40 mg/kg; Active; type: functional, organism-based; parameters: dose 40 mg/kg
[12] = species: Mus musculus; assay: Relative CNS activity of compound was measured in mice (++ =for activity in 4-5 assays); type: functional, organism-based; settings: Central nervous system
[13] = test system: Rattus norvegicus; assay: Conditioned avoidance response (CAR) was measured in rats at 10 mg/kg; Inactive; type: functional, organism-based; parameters: dose 10 mg/kg
[14] = test system: Rattus norvegicus; assay: Conditioned avoidance response (CAR) was measured in rats at 20 mg/kg doses; I = inactive; type: functional, organism-based; parameters: dose 20 mg/kg
[15] = test system: Rattus norvegicus; assay: Conditioned avoidance response (CAR) was measured in rats at 5 mg/kg doses; I = inactive; type: functional, organism-based; parameters: dose 5 mg/kg
[16] = species: Rattus norvegicus; assay: Conditioned avoidance response (CAR) was measured in rats; I = inactive; type: functional, organism-based

COc1ccccc1-c1cccc2c1CN(Cc1ccccc1)CC2.Cl
Activity [1]: <=1
CAR [2]: inactive
LD50 at 0.5 h [3]: > 160 mg/kg

Cl.c1ccc(-c2cccc3c2CNCC3)cc1
CAR [4]: Active
Activity [1]: <=1
CAR [5]: inactive
LD50 at 0.5 h [3]: 82 mg/kg

CC1Cc2cccc(-c3ccccc3)c2CN1Cc1ccccc1.Cl (configuration not stated)
CAR [6]: Active
Activity [7]: Weak activity
LD50 at 0.5 h [3]: 227 mg/kg
CAR [8]: inactive

CN1CCc2cccc(-c3ccccc3)c2C1.O=C(O)/C=C/C(=O)O
CAR [9]: Active
Activity [10]: Weak activity
LD50 at 0.5 h [3]: < 320 mg/kg
CAR [8]: inactive

COc1cccc(-c2cccc3c2CNCC3)c1.Cl
CAR [11]: Active
LD50 at 0.5 h [3]: < 160 mg/kg
Activity [12]: Active
CAR [13]: inactive

COc1ccccc1-c1cccc2c1CN(C)CC2.Cl
Activity [1]: <=1
CAR [11]: Active
LD50 at 0.5 h [3]: 81 mg/kg
CAR [13]: inactive

CC1Cc2cccc(-c3ccccc3)c2CN1.Cl (configuration not stated)
CAR [14]: inactive
Activity [1]: <=1
CAR [15]: inactive
LD50 at 0.5 h [3]: 146 mg/kg

COc1cccc(-c2cccc3c2CN(Cc2ccccc2)CC3)c1.Cl
Activity [1]: <=1
CAR [2]: inactive
LD50 at 0.5 h [3]: > 320 mg/kg

Br.CC1Cc2cccc(-c3ccccc3)c2CN1C (configuration not stated)
LD50 at 0.5 h [3]: < 320 mg/kg
CAR [16]: inactive
Activity [12]: Active

COc1cccc(-c2cccc3c2CN(C)CC3)c1.Cl
CAR [11]: Active
Activity [7]: Weak activity
LD50 at 0.5 h [3]: 156 mg/kg
CAR [13]: inactive

Cl.c1ccc(CN2CCc3cccc(-c4ccccc4)c3C2)cc1
Activity [1]: <=1
LD50 at 0.5 h [3]: 158 mg/kg
CAR [16]: inactive

COc1ccccc1-c1cccc2c1CNCC2.Cl
LD50 at 0.5 h [3]: 81 mg/kg
Activity [12]: Active
